Measurements from article PMC7870846, “Incorporation of sensing modalities into de novo designed fluorescence-activating proteins” (Nature Communications, 2021).
Marks after values point to notes of the source that are not given here.

Columns and labels:
[1] = pH-dependent fluorescence assays (pH titration); format: biochemical; conditions: from pH 8.38 to pH 4.79
Procedure: In measuring pH-dependent fluorescence (Fig. 3d–i), Na2HPO4-citrate buffer supplemented with 150 mM NaCl at unique pH values were produced via mixing various volumes of 100 mM citric acid (Sigma Aldrich), 200 mM Na2HPO4 (Sigma Aldrich), and 2.00 M NaCl, and final pHs quantified via an Accumet AB15 Basic pH meter (Fisher Scientific). pHRed and pHluorin2 were produced via large-scale protein purification, 6xHis-tag removal and size-exclusion chromatography (SEC) purification, and mFAP_pH and mFAP2b were produced via large-scale protein purification and SEC purification. pH-dependent fluorescence was measured at […] final protein concentration for mFAP2b, mFAP_pH and pHRed, and 170 nM final concentration for pHluorin2, at each pH in technical triplicate in 200 μL final volumes per well. […] In measuring fluorescence excitation spectra at each pH (Fig. 3d), excitation wavelengths were set to the range λex = 300–530 nm and fluorescence emission measured at λem = 562 nm. In measuring pH-dependent fluorescence excitation spectra at pH 3.76 and pH 7.34 (Fig. 3f, g), excitation spectra were measured using excitation wavelengths in the range λex = 300–540 nm and emission wavelength λem = 592 nm. […]

mFAP10 = biological target: T1, mFAP10; experiment: Fluorescence titration of DFHBI or DFHBI-1T into 20.0 nM purified protein in high-salt Tev cleavage buffer (25.0 mM Tris, 100 mM NaCl, pH 8.00), excitation 468 nm and emission 530 nm, means of eight technical replicates fit to a single-binding site isotherm.; conditions: n = 8
T1 construct: de novo designed beta-barrel; large-scale purification and SEC
Source text: (§1) Fig. 1 Characterization of brighter and chromophore-specific mFAPs. a Computational model of de novo designed β-barrel variant mFAP2b showing protein backbone (cartoon) and bound DFHBI chromophore (sticks). b, c Chemical structures of DFHBI and DFHBI-1T, respectively. d, e In vitro titration of d DFHBI or e DFHBI-1T with mFAP2 (gray), mFAP2b (lime), mFAP2a (violet), and mFAP10 (pink) proteins. Error bars represent s.d. of the mean of eight technical replicates. […] The images (left) are the pseudocolored normalized fluorescence intensity per pixel. Scale bars represent 10 microns. Imaging was independently repeated twice with similar results. The computational models (right) show the residues unique to mFAP2b (V13, M15) (lime sticks) or mFAP2a (A13, F15) (violet sticks). Intermolecular hydrogen bonds to the chromophore are shown as black dotted lines. […] Source data is available for Fig. 1f–i.
(§2) Fluorescence endpoints were measured on a Synergy Neo2 hybrid multi-mode reader (BioTek) in flat bottom, black polystyrene, non-binding surface 96-well microplates (Corning 3650). In measuring chromophore-binding affinities (Fig. 1d, e), mFAP2, mFAP2a, and mFAP2b, and mFAP10 were produced by large-scale protein purification and SEC purification. Proteins were aliquoted in eight technical replicates in 200 μL final volumes to 20.0 nM final concentration in ten serial dilutions ( 10 dilution factor) of DFHBI starting from 31.6 μM DFHBI or 31.6 μM DFHBI-1T final concentrations, including an eleventh condition without chromophore. Fluorescence was excited at λex = 468 nm and fluorescence emission measured at λem = 530 nm. Background fluorescence endpoints of wells with identical chromophore concentrations but purified protein replaced with an identical volume of high-salt Tev cleavage buffer were measured, and fluorescence endpoints subtracted from those measured with protein. Background-subtracted data were averaged and the means normalized from 0 to 1 and fit to a single-binding site isotherm function using non-linear least squares fitting to obtain a fitted Kd value (Table 1), and the fit scaled to the maximum mean value (Fig. 1d, e).

mFAP2a = biological target: T2, mFAP2a; experiment: as above; conditions: n = 8
T2 construct: de novo designed beta-barrel; large-scale purification and SEC
Source text: as §1, §2

mFAP2b = biological target: T3, mFAP2b; experiment: as above; conditions: n = 8
T3 construct: de novo designed beta-barrel; large-scale purification and SEC
Source text: as §1, §2

[2] = cited from earlier work
SERCA pumps = experiment: Pharmacological inhibition of SERCA Ca2+ pumps in cardiomyocytes; format: cell-based, human; conditions: 20.0 µM final; 3.00 µM DFHBI
Procedure: Pharmacological inhibition of SERCA Ca^2+ pumps: Cardiomyocytes in 2.0 mL of Tyrode’s solution labeled with 3.00 µM DFHBI were imaged at 2 Hz for 30 min with an sCMOS camera (Photometrics Prime95B) and 20x magnification lens (Leica HCX PL FLUOTAR L 20x/0.40 NA CORR). A stock solution of 20.0 mM cyclopiazonic acid (CPA) (Tocris, 1235) in 100% anhydrous DMSO was prepared. Two milliliters of Tyrode’s solution containing 3.00 µM DFHBI and 40.0 µM CPA was administered at ~10 min from initial image acquisition to inhibit SERCA pumps and disrupt Ca^2+ recovery into the SR after contraction. Fluorescence fold-change over the whole field of view in each frame was calculated by Eq. (11), where F is the fluorescence per frame, and F0 is the fluorescence at the first frame (Supplementary Fig. 19c).

mFAP_pH [3] = biological target: T4, mFAP_pH; experiment: Fluorescence titration of DFHBI into 500 nM protein in Na2HPO4-citrate buffer with 143 mM NaCl at pH 3.61 (excitation 379 nm, emission 498 nm), fit to a single-binding site isotherm.; conditions: read-out: affinities (Kd values), phenolic form of DFHBI
T4 construct: de novo designed beta-barrel; large-scale protein purification
Procedure: (§3) In measuring the protonated (phenolic) and deprotonated (phenolate) DFHBI affinities with mFAP_pH (Supplementary Fig. 5c), fluorescence endpoints were measured on a Synergy Neo2 hybrid multi-mode reader (BioTek) in flat bottom, black polystyrene, non-binding surface 96-well microplates (Corning 3650). mFAP_pH was produced by large-scale protein purification[49] and aliquoted to 200 μL final volumes at 500 nM final concentration in seven serial dilutions ( 10 dilution factor) of DFHBI starting from 10.0 μM DFHBI final concentration, including an eighth condition without chromophore, in Na2HPO4-citrate buffer supplemented with 143 mM NaCl final concentration at either pH 3.61 or pH 7.34. For pH 3.61 fluorescence was excited at λex = 379 nm and fluorescence emission measured at λem = 498 nm, and for pH 7.34 fluorescence was excited at λex = 483 nm and fluorescence emission measured at λem = 503 nm. At each pH, background fluorescence endpoints of wells with identical chromophore concentrations but purified protein replaced with an identical volume of buffer were measured, and fluorescence endpoints subtracted from those measured with protein. Background-subtracted data were normalized from 0 to 1 and fit to a single-binding site isotherm function using non-linear least squares fitting to obtain the reported Kd values, which were less than the protein concentrations tested.

mFAP_pH [4] = biological target: T4, mFAP_pH; experiment: Fluorescence titration of DFHBI into 500 nM protein in Na2HPO4-citrate buffer with 143 mM NaCl at pH 7.34 (excitation 483 nm, emission 503 nm), fit to a single-binding site isotherm.; conditions: read-out: affinities (Kd values), phenolate form of DFHBI
Procedure: as §3

Row | Molecule | Kd (mFAP10) | Kd (mFAP2a) | Kd (mFAP2b) | Reported quantum yield [2] | also measured
1 | pHRed: previously reported pH sensor protein [reference compound] |  |  |  |  | fold-change in ratiometric fluorescence (Fratio) [1]: ~ 34 fold
2 | CC1=N/C(=C\c2cc(F)c(O)c(F)c2)C(=O)N1CC(F)(F)F [DFHBI-1T, (Z)-4-(3,5-difluoro-4-hydroxybenzylidene)-2-methyl-1-(2,2,2-trifluoroethyl)-1H-imidazol-5(4H)-one] | 45 ± 6.5 nM | 5800 ± 860 nM | 11000 ± 3100 nM |  | 
3 | CC1=N/C(=C\c2cc(F)c(O)c(F)c2)C(=O)N1CC(F)(F)F [DFHBI-1T, (Z)-4-(3,5-difluoro-4-hydroxybenzylidene)-2-methyl-1-(2,2,2-trifluoroethyl)-1H-imidazol-5(4 H)-one] |  |  |  | 0.00098^e | 
4 | CC(=O)C1=C(O)[C@@H]2[C@H]3c4c[nH]c5cccc(c45)C[C@H]3C(C)(C)N2C1=O [cyclopiazonic acid] |  |  |  |  | effect on SR fluorescence of EF1n_mFAP2b sensor (SERCA pumps): sustained increase in fluorescence in the SR
5 | CC1=N/C(=C\c2cc(F)c(O)c(F)c2)C(=O)N1C [DFHBI, 3,5-difluoro-4-hydroxybenzylidene imidazolinone] |  |  |  | 0.0007^e | Absolute quantum yield [2]: 0.001^f; pKa ([2]; free, unbound in solution): ~ 5.4
6 | CC1=N/C(=C\c2cc(F)c(O)c(F)c2)C(=O)N1C [DFHBI] | 17 ± 7.9 nM | 150 ± 11 nM | 1800 ± 250 nM |  | Kd (mFAP_pH [3]): ~190 nM; Kd (mFAP_pH [4]): ~160 nM
